Results taken from US20260027116A1, “Methods of Treating Chronic Graft-Versus-Host Disease Following Allogeneic Hematopoietic Stem Cell Transplantation” (Kadmon Corporation, LLC, priority 2022, published 2026).

Columns and labels:
Format in all cases: in vivo, human
lung function = experiment: Example 1: percent predicted TLC change from baseline; details: Cohort 3: 400 mg QD, mean (SD)
Experimental: Change From Baseline in Percent Predicted Total Lung Capacity (TLC) at Each Specified Time Points. TLC is the volume of air in the lungs upon the maximum effort of inspiration. Baseline value was defined as valid and last non-missing value obtained within 28 days prior to participant receiving first study medication. EOT visit was performed within 3 days after the participant's last dose of study drug. […] Analysis was performed on mITT population. Here, ‘number analyzed’=participants with available data for each specified category. Here, ‘0’ in the number analyzed field signifies that none of the participants were available for the analysis at the specified time points.

cGVHD symptoms = experiment: Example 1: Global Severity Rating (GSR)
Experimental: Maximal Improvement from Baseline in Global Severity Rating (GSR) by Clinician-reported cGVHD Assessment. […] The response was defined using the scores from 9 organs: skin, eyes, mouth, esophagus, upper gastrointestinal (GI) track, lower GI tract, liver, lungs, and joints and fascia plus GSR. End of treatment (EOT) visit was performed within 3 days after the participant's last dose of study drug. […] Analysis was performed on mITT population.

[1] = clinical drug interaction studies, effects of other drugs on belumosudil; details: healthy subjects
cGVHD symptom burden = experiment: Example 2: 7-day LSS summary score; details: for Clinically significant improvement from baseline (LSS), Overall: decrease ≥ 7 points in LSS score
Experimental: All responses were assessed by the study site investigators.

Compound: CC(C)NC(=O)COc1cccc(-c2nc(Nc3ccc4[nH]ncc4c3)c3ccccc3n2)c1 [Belumosudil, 2-{3-[4-(1H-indazol-5-ylamino)-2-quinazolinyl]phenoxy}-N-(propan-2-yl) acetamide]
- Change From Baseline in Percent Predicted Total Lung Capacity (TLC) (lung function; Cycle 5, Day 1): −1.7 (11.2) Percent Predicted TLC
- Change From Baseline in Percent Predicted Total Lung Capacity (TLC) (lung function; Cycle 6, Day 1): −4.4 (11.6) Percent Predicted TLC
- Change From Baseline in Percent Predicted Total Lung Capacity (TLC) (lung function; Cycle 7, Day 1): −2.6 (13.4) Percent Predicted TLC
- Change From Baseline in Percent Predicted Total Lung Capacity (TLC) (lung function; Cycle 8, Day 1): −0.2 (12.9) Percent Predicted TLC
- Change From Baseline in Percent Predicted Total Lung Capacity (TLC) (lung function; Cycle 9, Day 1): −0.9 (15.8) Percent Predicted TLC
- Change From Baseline in Percent Predicted Total Lung Capacity (TLC) (lung function; Cycle 10, Day 1): 3.6 (14.7) Percent Predicted TLC
- Change From Baseline in Percent Predicted Total Lung Capacity (TLC) (lung function; Cycle 11, Day 1): −3.0 (19.7) Percent Predicted TLC
- Change From Baseline in Percent Predicted Total Lung Capacity (TLC) (lung function; Cycle 12, Day 1): −8.0 (14.2) Percent Predicted TLC
- Change From Baseline in Percent Predicted Total Lung Capacity (TLC) (lung function; Cycle 13, Day 1): −3.3 (17.6) Percent Predicted TLC
- Change From Baseline in Percent Predicted Total Lung Capacity (TLC) (lung function; Cycle 14, Day 1): −5.8 (16.5) Percent Predicted TLC
- Change From Baseline in Percent Predicted Total Lung Capacity (TLC) (lung function; Cycle 15, Day 1): −7.0 (12.0) Percent Predicted TLC
- Change From Baseline in Percent Predicted Total Lung Capacity (TLC) (lung function; Cycle 16, Day 1): −15.5 (9.5) Percent Predicted TLC
- Change From Baseline in Percent Predicted Total Lung Capacity (TLC) (lung function; Cycle 17, Day 1): −18.1 (15.6) Percent Predicted TLC
- Change From Baseline in Percent Predicted Total Lung Capacity (TLC) (lung function; Cycle 18, Day 1): 0.0 (13.9) Percent Predicted TLC
- Change From Baseline in Percent Predicted Total Lung Capacity (TLC) (lung function; Cycle 19, Day 1): −7.0 (5.4) Percent Predicted TLC
- Change From Baseline in Percent Predicted Total Lung Capacity (TLC) (lung function; Cycle 20, Day 1): −9.3 (15.4) Percent Predicted TLC
- Change From Baseline in Percent Predicted Total Lung Capacity (TLC) (lung function; Cycle 21, Day 1): −14.4 (24.0) Percent Predicted TLC
- Change From Baseline in Percent Predicted Total Lung Capacity (TLC) (lung function; Cycle 22, Day 1): −21.0 (14.1) Percent Predicted TLC
- Change From Baseline in Percent Predicted Total Lung Capacity (TLC) (lung function; Cycle 23, Day 1): −2.8 (18.8) Percent Predicted TLC
- Change From Baseline in Percent Predicted Total Lung Capacity (TLC) (lung function; Cycle 24, Day 1): −34.0 (—) Percent Predicted TLC
- Change From Baseline in Percent Predicted Total Lung Capacity (TLC) (lung function; Cycle 25, Day 1): −6.3 (24.1) Percent Predicted TLC
- Change From Baseline in Percent Predicted Total Lung Capacity (TLC) (lung function; Cycle 27, Day 1): −14.5 (24.7) Percent Predicted TLC
- Change From Baseline in Percent Predicted Total Lung Capacity (TLC) (lung function; Cycle 29, Day 1): 12.0 (14.1) Percent Predicted TLC
- Change From Baseline in Percent Predicted Total Lung Capacity (TLC) (lung function; Cycle 31, Day 1): 17.0 (—) Percent Predicted TLC
- Change From Baseline in Percent Predicted Total Lung Capacity (TLC) (lung function; Cycle 35, Day 1): 13.0 (—) Percent Predicted TLC
- Change From Baseline in Percent Predicted Total Lung Capacity (TLC) (lung function; Cycle 36, Day 1): −6.0 (—) Percent Predicted TLC
- Change From Baseline in Percent Predicted Total Lung Capacity (TLC) (lung function; Cycle 49, Day 1): 1.0 (—) Percent Predicted TLC
- Change From Baseline in Percent Predicted Total Lung Capacity (TLC) (lung function; EOT): −12.6 (20.1) Percent Predicted TLC
- GSR maximal improvement 0, participants (%) (cGVHD symptoms; Cohort 1 200 mg QD): 5 (29%) participants
- GSR maximal improvement 1, participants (%) (cGVHD symptoms; Cohort 1 200 mg QD): 0 (0%) participants
- GSR maximal improvement 3, participants (%) (cGVHD symptoms; Cohort 1 200 mg QD): 0 (0%) participants
- GSR maximal improvement from baseline −7, participants (%) (cGVHD symptoms; Cohort 1 200 mg QD): 0 (0%) participants
- GSR maximal improvement −1, participants (%) (cGVHD symptoms; Cohort 1 200 mg QD): 1 (6%) participants
- GSR maximal improvement −2, participants (%) (cGVHD symptoms; Cohort 1 200 mg QD): 2 (12%) participants
- GSR maximal improvement −3, participants (%) (cGVHD symptoms; Cohort 1 200 mg QD): 4 (24%) participants
- GSR maximal improvement −4, participants (%) (cGVHD symptoms; Cohort 1 200 mg QD): 2 (12%) participants
- GSR maximal improvement −5, participants (%) (cGVHD symptoms; Cohort 1 200 mg QD): 2 (12%) participants
- GSR maximal improvement −6, participants (%) (cGVHD symptoms; Cohort 1 200 mg QD): 0 (0%) participants
- GSR maximal improvement 0, participants (%) (cGVHD symptoms; Cohort 2 200 mg BID): 4 (25%) participants
- GSR maximal improvement 1, participants (%) (cGVHD symptoms; Cohort 2 200 mg BID): 1 (6%) participants
- GSR maximal improvement 3, participants (%) (cGVHD symptoms; Cohort 2 200 mg BID): 1 (6%) participants
- GSR maximal improvement from baseline −7, participants (%) (cGVHD symptoms; Cohort 2 200 mg BID): 0 (0%) participants
- GSR maximal improvement −1, participants (%) (cGVHD symptoms; Cohort 2 200 mg BID): 2 (13%) participants
- GSR maximal improvement −2, participants (%) (cGVHD symptoms; Cohort 2 200 mg BID): 4 (25%) participants
- GSR maximal improvement −3, participants (%) (cGVHD symptoms; Cohort 2 200 mg BID): 0 (0%) participants
- GSR maximal improvement −4, participants (%) (cGVHD symptoms; Cohort 2 200 mg BID): 0 (0%) participants
- GSR maximal improvement −5, participants (%) (cGVHD symptoms; Cohort 2 200 mg BID): 2 (13%) participants
- GSR maximal improvement −6, participants (%) (cGVHD symptoms; Cohort 2 200 mg BID): 2 (13%) participants
- GSR maximal improvement 0, participants (%) (cGVHD symptoms; Cohort 3 400 mg QD): 3 (14%) participants
- GSR maximal improvement 1, participants (%) (cGVHD symptoms; Cohort 3 400 mg QD): 1 (5%) participants
- GSR maximal improvement 3, participants (%) (cGVHD symptoms; Cohort 3 400 mg QD): 0 (0%) participants
- GSR maximal improvement from baseline −7, participants (%) (cGVHD symptoms; Cohort 3 400 mg QD): 2 (10%) participants
- GSR maximal improvement −1, participants (%) (cGVHD symptoms; Cohort 3 400 mg QD): 4 (19%) participants
- GSR maximal improvement −2, participants (%) (cGVHD symptoms; Cohort 3 400 mg QD): 4 (19%) participants
- GSR maximal improvement −3, participants (%) (cGVHD symptoms; Cohort 3 400 mg QD): 1 (5%) participants
- GSR maximal improvement −4, participants (%) (cGVHD symptoms; Cohort 3 400 mg QD): 3 (14%) participants
- GSR maximal improvement −5, participants (%) (cGVHD symptoms; Cohort 3 400 mg QD): 0 (0%) participants
- GSR maximal improvement −6, participants (%) (cGVHD symptoms; Cohort 3 400 mg QD): 0 (0%) participants
- decrease of belumosudil AUC with omeprazole [1]: 47%
- decrease of belumosudil AUC with rabeprazole [1]: 80%
- decrease of belumosudil AUC with rifampin [1]: 72%
- decrease of belumosudil Cmax with omeprazole [1]: 68%
- decrease of belumosudil Cmax with rabeprazole [1]: 87%
- decrease of belumosudil Cmax with rifampin [1]: 59%
- effect of itraconazole on belumosudil exposure [1]: no clinically meaningful effect
- clinically meaningful LSS improvement, nonresponders (cGVHD symptom burden; 200 mg daily): 29%
- clinically meaningful LSS improvement, responders (cGVHD symptom burden; 200 mg daily): 69%
- clinically meaningful improvement (≥7-point) in 7-day LSS summary score, mITT (cGVHD symptom burden; 200 mg daily): 59%
- clinically meaningful LSS improvement, nonresponders (cGVHD symptom burden; 200 mg twice daily): 33%
- clinically meaningful LSS improvement, responders (cGVHD symptom burden; 200 mg twice daily): 71%
- clinically meaningful improvement (≥7-point) in 7-day LSS summary score, mITT (cGVHD symptom burden; 200 mg twice daily): 62%
- Clinically significant improvement from baseline (LSS), Overall (cGVHD symptom burden; 200 mg daily (n = 66)): 39 (59) n (%)
- Clinically significant improvement from baseline (LSS), Overall (cGVHD symptom burden; 200 mg twice daily (n = 66)): 41 (62) n (%)
- Clinically significant improvement from baseline (LSS), Overall (cGVHD symptom burden; Total (N = 132)): 80 (61) n (%)
